These results are taken from ChEMBL document CHEMBL5625232, “Development of selective class I protein arginine methyltransferase inhibitors through fragment-based drug design approach” (Eur J Med Chem, 2023).

Usually IC50 stands for the concentration needed to halve the response being measured. What is called inhibition is the relative decrease from the control value, in per cent. The term logD denotes lipophilicity at a set pH, counting ionised and neutral species. Read a low logD as a more hydrophilic compound. The solubility is the concentration that dissolves in the medium under given conditions.

For series [1], the target named is T1, Histone-arginine methyltransferase CARM1 (Homo sapiens, UniProt Q86X55).
T1 sequence (Q86X55 whole entry): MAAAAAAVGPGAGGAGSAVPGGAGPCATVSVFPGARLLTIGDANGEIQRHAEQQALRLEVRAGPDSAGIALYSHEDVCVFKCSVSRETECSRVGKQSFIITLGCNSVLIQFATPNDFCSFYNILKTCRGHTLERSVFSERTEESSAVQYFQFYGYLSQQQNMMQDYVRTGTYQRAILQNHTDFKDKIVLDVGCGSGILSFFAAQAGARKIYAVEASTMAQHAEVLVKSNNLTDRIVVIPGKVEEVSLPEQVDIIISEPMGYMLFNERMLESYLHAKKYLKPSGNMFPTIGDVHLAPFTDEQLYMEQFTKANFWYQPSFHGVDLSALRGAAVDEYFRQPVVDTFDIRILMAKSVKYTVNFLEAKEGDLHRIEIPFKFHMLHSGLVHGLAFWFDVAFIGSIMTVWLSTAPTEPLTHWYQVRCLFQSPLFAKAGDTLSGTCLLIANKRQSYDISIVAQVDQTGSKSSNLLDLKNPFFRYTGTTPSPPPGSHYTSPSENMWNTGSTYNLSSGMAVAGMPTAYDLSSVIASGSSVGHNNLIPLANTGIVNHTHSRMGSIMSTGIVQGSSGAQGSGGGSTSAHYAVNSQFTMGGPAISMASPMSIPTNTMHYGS
Briefly: Inhibition of PRMT4 (unknown origin).

Series [2] addresses T2, Histone-lysine N-methyltransferase SUV39H1 (Homo sapiens, UniProt O43463).
T2 sequence (O43463 whole entry): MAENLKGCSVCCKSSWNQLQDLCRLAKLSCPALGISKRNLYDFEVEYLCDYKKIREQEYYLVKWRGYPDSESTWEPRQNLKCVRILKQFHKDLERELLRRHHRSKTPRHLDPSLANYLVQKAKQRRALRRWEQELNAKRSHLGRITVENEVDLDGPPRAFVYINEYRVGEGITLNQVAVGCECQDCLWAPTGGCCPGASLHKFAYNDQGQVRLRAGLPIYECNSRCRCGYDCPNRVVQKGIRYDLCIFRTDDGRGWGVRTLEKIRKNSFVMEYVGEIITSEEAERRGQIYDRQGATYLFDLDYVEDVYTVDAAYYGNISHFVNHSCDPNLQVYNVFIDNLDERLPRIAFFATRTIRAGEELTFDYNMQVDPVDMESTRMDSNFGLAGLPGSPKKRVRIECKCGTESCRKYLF
Briefly: Displacement of 3H-SAM from SUV39H1 (unknown origin) using biotinylated-histone H3 peptide as substrate incubated for 45 mins by SPA assay.

Series [3] deals with T3, Histone-lysine N-methyltransferase SMYD3 (Homo sapiens, UniProt Q9H7B4).
T3 sequence (Q9H7B4 whole entry): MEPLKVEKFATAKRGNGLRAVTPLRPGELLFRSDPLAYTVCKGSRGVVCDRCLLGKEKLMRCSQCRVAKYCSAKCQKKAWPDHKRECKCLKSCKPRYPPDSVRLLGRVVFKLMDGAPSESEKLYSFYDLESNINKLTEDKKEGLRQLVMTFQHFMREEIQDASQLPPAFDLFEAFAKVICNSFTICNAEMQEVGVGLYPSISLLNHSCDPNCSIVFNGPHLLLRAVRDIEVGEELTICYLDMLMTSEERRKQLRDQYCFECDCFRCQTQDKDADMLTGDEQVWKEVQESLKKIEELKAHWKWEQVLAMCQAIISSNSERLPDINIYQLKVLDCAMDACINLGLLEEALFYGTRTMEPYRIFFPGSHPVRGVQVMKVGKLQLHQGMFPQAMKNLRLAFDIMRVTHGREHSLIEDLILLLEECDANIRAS
The series can be described thus: Displacement of 3H-SAM from SMYD3 (unknown origin) using biotinylated-MAP3K2 as substrate incubated for 45 mins by SPA assay. A general note: In a radioligand displacement assay an active substance lowers the binding of a labelled ligand.

Series [4] concerns the target T4, Histone-lysine N-methyltransferase SMYD3 (Homo sapiens) (UniProt Q9H7B4).
T4 sequence (whole entry): T3 sequence (Q9H7B4 whole entry)
The series can be described thus: Displacement of 3H-SAM from SMYD3 (unknown origin) using biotinylated-MAP3K2 as substrate at 30 uM incubated for 45 mins by SPA assay relative to control.

Series [5] addresses Histone-lysine N-methyltransferase, H3 lysine-79 specific (Homo sapiens) (UniProt Q8TEK3). The series can be described thus: Displacement of 3H-SAM from DOT1L (unknown origin) at 30 uM incubated for 1 hr in presence of substrate by SPA assay relative to control.
In series [6] the target is T5, Protein arginine N-methyltransferase 1 (Homo sapiens, UniProt Q99873). Briefly: Displacement of 3H-SAM from PRMT1 (unknown origin) using biotinylated-histone H4 peptide as substrate incubated for 45 mins by SPA assay.
Target sequence in this assay (Q99873 whole entry): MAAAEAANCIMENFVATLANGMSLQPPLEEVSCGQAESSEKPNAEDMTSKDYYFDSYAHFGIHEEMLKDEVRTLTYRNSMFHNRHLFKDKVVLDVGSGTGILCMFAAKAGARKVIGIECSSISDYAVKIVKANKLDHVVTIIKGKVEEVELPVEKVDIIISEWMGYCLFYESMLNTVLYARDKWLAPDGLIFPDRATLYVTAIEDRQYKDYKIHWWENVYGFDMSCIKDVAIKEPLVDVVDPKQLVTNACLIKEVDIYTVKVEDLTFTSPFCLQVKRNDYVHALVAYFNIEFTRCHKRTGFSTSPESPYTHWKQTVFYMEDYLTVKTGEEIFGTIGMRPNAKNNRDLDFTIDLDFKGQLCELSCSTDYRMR
In series [7] the target is T4, Histone-lysine N-methyltransferase SMYD3 (Homo sapiens). The series can be described thus: Displacement of 3H-SAM from SMYD3 (unknown origin) using biotinylated-MAP3K2 as substrate at 10 uM incubated for 45 mins by SPA assay relative to control.
Series [8] concerns the target T6, Histone-lysine N-methyltransferase SUV39H1 (Homo sapiens) (UniProt O43463).
T6 sequence (whole entry): T2 sequence (O43463 whole entry)
Briefly: Displacement of 3H-SAM from SUV39H1 (unknown origin) using biotinylated-histone H3 peptide as substrate at 10 uM incubated for 45 mins by SPA assay relative to control.

The target of series [9] is T5, Protein arginine N-methyltransferase 1. Briefly: Displacement of 3H-SAM from PRMT1 (unknown origin) using biotinylated-histone H4 peptide as substrate at 30 uM incubated for 45 mins by SPA assay relative to control.
Target sequence in this assay (Q99873 whole entry, looked up): as the sequence (Q99873 whole entry) above
Series [10] has as its target T6, Histone-lysine N-methyltransferase SUV39H1 (Homo sapiens). The series can be described thus: Displacement of 3H-SAM from SUV39H1 (unknown origin) using biotinylated-histone H3 peptide as substrate at 30 uM incubated for 45 mins by SPA assay relative to control.
Series [11] is described as follows: Lipophilicity, log D of compound in 1-octanol at pH 7.4 incubated for 4 hrs by HPLC-UV analysis. The series is classed as physicochemical. The conditions noted are these: 1-octanol/aqueous phase.
Series [12] addresses T7, Protein arginine N-methyltransferase 8 (Homo sapiens, UniProt Q9NR22). The series can be described thus: Inhibition of PRMT8 (unknown origin).
The target of series [13] is T5, Protein arginine N-methyltransferase 1. The series can be described thus: Inhibition of PRMT1 (unknown origin).
Target sequence in this assay (Q99873 whole entry): as above
Series [14] deals with Protein arginine N-methyltransferase 6 (Homo sapiens, UniProt Q96LA8). The series can be described thus: Inhibition of PRMT6 (unknown origin).
Series [15] concerns the target T5, Protein arginine N-methyltransferase 1. Briefly: Displacement of 3H-SAM from PRMT1 (unknown origin) using biotinylated-histone H4 peptide as substrate upto 200 uM incubated for 45 mins by SPA assay.
Target sequence in this assay (Q99873 whole entry, looked up): as the sequence (Q99873 whole entry) above
The target in series [16] is T6, Histone-lysine N-methyltransferase SUV39H1 (Homo sapiens). Briefly: Displacement of 3H-SAM from SUV39H1 (unknown origin) using biotinylated-histone H3 peptide as substrate upto 200 uM incubated for 45 mins by SPA assay.
Series [17] deals with T4, Histone-lysine N-methyltransferase SMYD3 (Homo sapiens). The series can be described thus: Displacement of 3H-SAM from SMYD3 (unknown origin) using biotinylated-MAP3K2 as substrate upto 200 uM incubated for 45 mins by SPA assay.
For series [18], the target named is T7, Protein arginine N-methyltransferase 8. The series can be described thus: Displacement of 3H-SAM from human PRMT8 in presence of substrate by SPA assay.
Series [19] concerns the target T1, Histone-arginine methyltransferase CARM1. The series can be described thus: Displacement of 3H-SAM from human PRMT4 in presence of substrate by SPA assay.
Series [20] is described as follows: Aqueous solubility of compound at pH 7.4 incubated for 24 hrs by HPLC-UV spectroscopy. The series is classed as physicochemical. The conditions noted are these: aqueous medium.

≈ marks a conversion by molar mass, not a printed value. Calls of active or inactive are those of the source. No cut-off for these calls is given here.

Histone-lysine N-methyltransferase, H3 lysine-79 specific (Homo sapiens), sequence (Q8TEK3 whole entry, looked up): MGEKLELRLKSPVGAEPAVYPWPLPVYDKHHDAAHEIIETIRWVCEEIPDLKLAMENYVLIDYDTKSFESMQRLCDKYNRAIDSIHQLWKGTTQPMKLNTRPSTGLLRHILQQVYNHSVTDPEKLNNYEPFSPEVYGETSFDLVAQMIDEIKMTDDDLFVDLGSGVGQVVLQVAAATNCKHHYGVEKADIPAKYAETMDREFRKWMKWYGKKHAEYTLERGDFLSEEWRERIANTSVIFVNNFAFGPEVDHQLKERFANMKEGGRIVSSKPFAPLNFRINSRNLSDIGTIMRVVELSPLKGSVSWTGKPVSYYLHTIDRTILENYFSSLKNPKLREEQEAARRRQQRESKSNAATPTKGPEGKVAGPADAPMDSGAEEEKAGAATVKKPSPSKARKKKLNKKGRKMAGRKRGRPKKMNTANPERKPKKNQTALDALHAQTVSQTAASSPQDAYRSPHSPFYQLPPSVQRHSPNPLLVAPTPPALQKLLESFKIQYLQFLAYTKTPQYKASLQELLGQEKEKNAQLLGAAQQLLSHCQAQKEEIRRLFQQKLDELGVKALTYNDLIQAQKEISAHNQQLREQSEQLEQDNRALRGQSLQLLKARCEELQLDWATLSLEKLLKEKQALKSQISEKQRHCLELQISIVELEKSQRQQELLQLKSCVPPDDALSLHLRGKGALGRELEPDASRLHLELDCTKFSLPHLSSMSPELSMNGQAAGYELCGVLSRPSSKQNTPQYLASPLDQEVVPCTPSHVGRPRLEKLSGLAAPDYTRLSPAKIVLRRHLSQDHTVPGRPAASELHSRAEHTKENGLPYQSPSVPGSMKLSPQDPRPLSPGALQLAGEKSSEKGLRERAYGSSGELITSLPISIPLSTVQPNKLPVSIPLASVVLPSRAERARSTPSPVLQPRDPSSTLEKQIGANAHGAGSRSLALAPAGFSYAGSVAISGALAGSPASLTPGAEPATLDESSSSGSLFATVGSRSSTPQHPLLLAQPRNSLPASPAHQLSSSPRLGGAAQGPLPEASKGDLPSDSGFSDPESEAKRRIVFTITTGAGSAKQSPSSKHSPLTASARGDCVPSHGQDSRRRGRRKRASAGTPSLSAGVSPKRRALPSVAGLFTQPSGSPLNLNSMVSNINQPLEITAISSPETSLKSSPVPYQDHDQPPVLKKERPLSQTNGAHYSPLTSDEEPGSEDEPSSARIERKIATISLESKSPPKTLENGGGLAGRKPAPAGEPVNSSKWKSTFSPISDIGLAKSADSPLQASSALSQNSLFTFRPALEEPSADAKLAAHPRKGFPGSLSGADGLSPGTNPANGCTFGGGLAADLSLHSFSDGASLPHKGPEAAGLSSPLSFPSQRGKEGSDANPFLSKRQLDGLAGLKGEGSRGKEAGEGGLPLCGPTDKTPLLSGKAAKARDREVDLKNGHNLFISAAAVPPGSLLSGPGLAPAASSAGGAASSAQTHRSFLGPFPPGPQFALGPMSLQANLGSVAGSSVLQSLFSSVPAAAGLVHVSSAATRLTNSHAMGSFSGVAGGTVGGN
T7 sequence (Q9NR22 whole entry): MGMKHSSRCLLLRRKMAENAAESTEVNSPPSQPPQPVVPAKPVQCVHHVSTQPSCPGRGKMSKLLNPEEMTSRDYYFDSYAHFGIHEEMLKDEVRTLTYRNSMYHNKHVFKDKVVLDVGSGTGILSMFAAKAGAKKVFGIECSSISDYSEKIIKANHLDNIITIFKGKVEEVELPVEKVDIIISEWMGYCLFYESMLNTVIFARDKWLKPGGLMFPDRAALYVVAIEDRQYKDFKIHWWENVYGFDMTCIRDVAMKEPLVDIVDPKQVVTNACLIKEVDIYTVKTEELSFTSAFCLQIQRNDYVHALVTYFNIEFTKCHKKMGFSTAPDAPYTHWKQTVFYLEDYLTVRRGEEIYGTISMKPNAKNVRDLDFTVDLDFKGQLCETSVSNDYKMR
Protein arginine N-methyltransferase 6, sequence (Q96LA8 whole entry): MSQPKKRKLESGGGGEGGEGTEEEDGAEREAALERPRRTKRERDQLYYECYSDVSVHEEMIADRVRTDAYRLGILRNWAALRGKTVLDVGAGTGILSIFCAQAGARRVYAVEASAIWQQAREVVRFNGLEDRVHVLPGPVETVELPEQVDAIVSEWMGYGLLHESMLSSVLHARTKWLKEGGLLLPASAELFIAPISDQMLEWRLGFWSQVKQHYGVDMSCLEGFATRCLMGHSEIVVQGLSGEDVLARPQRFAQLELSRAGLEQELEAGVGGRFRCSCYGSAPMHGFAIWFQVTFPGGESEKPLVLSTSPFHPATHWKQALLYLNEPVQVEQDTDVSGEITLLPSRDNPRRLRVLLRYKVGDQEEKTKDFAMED

With `CNCCNc1cccc(-n2nc(C(F)(F)F)cc2C(=O)NCc2ccccc2OC)c1`, the IC50 in series [1] is 5 nM.
With `NC1CCN(c2ncnc3cc(C(=O)NC4CCNC4)ccc23)CC1` (configuration not stated), the IC50 came out at 16 µM in [2] and 60 µM in series [3].
The molecule `CN(C)CCN1CCC(NC(=O)c2ccc3c(Nc4ccc(CN)cc4)ncnc3c2)C1` (configuration not stated) came in with an IC50 in [2] of 16 µM. Moreover, the inhibition is under 25% in series [4] and 10% in [5].
For the molecule `NC1CCN(c2ncnc3cc(C(=O)NC4CCNCC4)ccc23)CC1`, the half-maximal inhibitory concentration (IC50) in series [2], in series [6] and in [3] was over 200 µM in each case.
For `CNCCN1CCC(NC(=O)c2ccc3c(Nc4ccc(CNC)cc4)ncnc3c2)C1` (configuration not stated), the inhibition in [7] and in series [8] was under 25% each time. Further, in series [6], the IC50 stood at 2 µM.
In [2], `NCc1ccc(Nc2ncnc3cc(C(=O)NCCN4CCCC4)ccc23)cc1` had an IC50 of 14 µM. Further, the inhibition in [9] is under 25%; in series [4], under 25%; in series [5], 9%.
As for `CN1CCN(CCNC(=O)c2ccc3c(Nc4ccc(CN)cc4)ncnc3c2)CC1`, the inhibition was under 25% in series [9], under 25% in [4], under 25% in [10] and 17% in series [5].
The molecule `COCCc1ccc(OCC(O)CNC(C)C)cc1` (configuration not stated) [METOPROLOL] came in with a logD at 4 h in series [11] of -0.28.
Take `CNCCCNC(=O)c1ccc2c(Nc3ccc(CN)cc3)ncnc2c1`: the inhibition in [7] and in series [8] was under 25% each time.
`CNCCNCc1c[nH]nc1-c1ccc(O[C@H]2C[C@H](OCCC3CCCCC3)C2)cc1`: the IC50 in [12] was determined as 223 nM; in [13] it was 119 nM; in series [14], 10 nM.
Turning to `CNCCNC(=O)c1ccc2c(Nc3ccc(CN)cc3)ncnc2c1`, the concentration for half-maximal inhibition (IC50) in series [2] amounted to 23 µM. In addition, the inhibition is under 25% in [4] and 15% in series [5].
As to `NCc1ccc(NC(=O)c2ccc3c(N4CCC(N)CC4)ncnc3c2)cc1`, the IC50 in [2] came out at 7 µM; in series [3], 8 µM.
Take `CN1CCC(NC(=O)c2ccc3c(Nc4ccc(CN)cc4)ncnc3c2)C1` (configuration not stated): the inhibition in series [7] and in [8] was under 25% each time. Also, the inhibition entry in series [15] is “inactive”.
Turning to `NCc1ccc(Nc2ncnc3cc(C(=O)NC4CCNCC4)ccc23)cc1`, the results for the IC50 in [2], in [6] and in [3] were over 200 µM, over 200 µM and over 100 µM, respectively.
Regarding `NC1CCN(c2ncnc3cc(C(=O)NCCN4CCNCC4)ccc23)CC1`, the IC50 in [2] was over 200 µM; in [6], over 100 µM; in [3], over 200 µM.
Turning to `NCc1ccc(Nc2ncnc3cc(C(=O)NCCN4CCNCC4)ccc23)cc1`, the IC50 in series [2] came to 35 µM; in series [3], 74 µM.
As to `NC1CCN(c2ncnc3cc(C(=O)NC4CCCC4)ccc23)CC1`, the inhibition result in [16], in series [17] and in series [15] was “inactive” in each case.
Turning to `NCc1ccc(Nc2ncnc3cc(C(=O)NC4CCNC4)ccc23)cc1` (configuration not stated), the IC50 in [2] came out at 47 µM; in series [3], 63 µM.
On to `CC(C)Oc1ccc(-c2c[nH]cc2CN(C)CCN)cc1`, for which the IC50 in series [18] amounted to 9 µM; in [19], 45 µM.
Take `NCc1ccc(Nc2ncnc3cc(C(=O)N4CCC(N)C4)ccc23)cc1` (configuration not stated): the results for the half-maximal inhibitory concentration (IC50) in series [2], in series [6] and in series [3] were over 100 µM, over 100 µM and over 200 µM, respectively.
In the case of `CN(C)CCNC(=O)c1ccc2c(Nc3ccc(CN)cc3)ncnc2c1`, in series [2], the IC50 is 22 µM. Moreover, the inhibition is under 25% in [9], under 25% in series [4] and 5% in series [5].
`CCCSc1ccc2nc(NC(=O)OC)[nH]c2c1` [ALBENDAZOLE] showed a solubility at 24 h in series [20] of 2.2 µg/mL (≈ 8.29 µM).
